Experiment: physchem
Experimental: The pKa of a lipid is the pH at which 50% of the lipids are charged, lying halfway between the point where the lipids are completely charged and the point where the lipids are completely uncharged.
The pKa of a lipid is measured in water at standard temperature and pressure using the following technique: • 2 mM solution of lipid in ethanol is prepared by weighing the lipid and dissolving in ethanol. 0.3 mM solution of fluorescent probe toluene nitrosulphonic acid (TNS) in ethanol:methanol 9:1 is prepared by first making 3 mM solution of TNS in methanol and then diluting to 0.3 mM with ethanol. • An aqueous buffer containing sodium phosphate, sodium citrate sodium acetate and sodium chloride, at the concentrations 20 mM, 25 mM, 20 mM and 150 mM, respectively, is prepared. The buffer is split into eight parts and the pH adjusted either with 12N HCl or 6N NaOH to 4.44-4.52, 5.27, 6.15-6.21, 6.57, 7.10-7.20, 7.72-7.80, 8.27-8.33 and 10.47-11.12. 400 uL of 2 mM lipid solution and 800 uL of 0.3 mM TNS solution are mixed. • 7.5 μL of probe/lipid mix are added to 242.5 μL of buffer in a 1 mL 96 well plate. This is done with all eight buffers. […]

Structure (SMILES) | pKa
CCCCC/C=C\C/C=C\CCCCCCCCOCC(CN1CCC(C)(C)C1)OCCOCCO[C@H]1CC[C@@]2(C)C(=CC[C@H]3[C@@H]4CC[C@H]([C@H](C)CCCC(C)C)[C@@]4(C)CC[C@@H]32)C1 (some centres unmarked) [RV05] | 5.85
CCCCC/C=C\C/C=C\CCCCCCCCOCC(CN1CCCC1C)OCCOCCOCCNC(=O)CCC(=O)O[C@H]1CC[C@@]2(C)C(=CC[C@H]3[C@@H]4CC[C@H]([C@H](C)CCCC(C)C)[C@@]4(C)CC[C@@H]32)C1 (some centres unmarked) [RV10] | 7.86
